# Assay results as given in patent US9145399B2, “Substituted bicyclic triazole derivatives as gamma secretase modulators” (Janssen Pharmaceuticals, Inc., priority 2010, dated 2015).
# How the values were obtained:
# Aβtotal = assay: Screening for γ-secretase-modulating activity in SKNBE2 cells carrying APP 695 wild type: Aβtotal in cell supernatant (Alphalisa); assay type: cell-based; details: Homo sapiens, overnight incubation
# Procedure: (§1) Pharmacology A) Screening of the Compounds of the Invention for γ-Secretase-Modulating Activity
# (§2) Screening was carried out using SKNBE2 cells carrying the APP 695—wild type, grown in Dulbecco's Modified Eagle's Medium/Nutrient mixture F-12 (DMEM/NUT-mix F-12) (HAM) provided by Invitrogen (cat no. 10371-029) containing 5% Serum/Fe supplemented with 1% non-essential amino acids, 1-glutamine 2 mM, Hepes 15 mM, penicillin 50 U/ml (units/ml) en streptomycin 50 μg/ml. Cells were grown to near confluency.
# (§3) The screening was performed using a modification of the assay as described in Citron et al (1997) Nature Medicine 3: 67. Briefly, cells were plated in a 384-well plate at 10^4 cells/well in Ultraculture (Lonza, BE12-725F) supplemented with 1% glutamine (Invitrogen, 25030-024), 1% non-essential amino acid (NEAA), penicillin 50 U/ml en streptomycin 50 μg/ml in the presence of test compound at different test concentrations. The cell/compound mixture was incubated overnight at 37° C., 5% CO2. The next day the media were assayed by two sandwich immuno-assays, for Aβ42 and Aβtotal.
# (§4) Aβtotal and Aβ42 concentrations were quantified in the cell supernatant using the Aphalisa technology (Perkin Elmer). Alphalisa is a sandwich assay using biotinylated antibody attached to streptavidin coated donorbeads and antibody conjugated to acceptor beads. In the presence of antigen, the beads come into close proximity. The excitation of the donor beads provokes the release of singlet oxygen molecules that trigger a cascade of energy transfer in the acceptor beads, resulting in light emission. To quantify the amount of Aβ42 in the cell supernatant, monoclonal antibody specific to the C-terminus of Aβ42 (JRF/cAβ42/26) was coupled to the receptor beads and biotinylated antibody specific to the N-terminus of Aβ (JRF/AβN/25) was used to react with the donor beads. T quantify the amount of Aβtotal in the cell supernatant, monoclonal antibody specific to the N-terminus of Aβ (JRF/AβN/25) was coupled to the receptor beads and biotinylated antibody specific to the mid region of Aβ (biotinylated 4G8) was used to react with the donor beads.
# (§5) To obtain the values reported in Table 3, the data are calculated as percentage of the maximum amount of amyloid Beta 42 measured in the absence of the test compound. The sigmoidal dose response curves were analyzed using non-linear regression analysis with percentage of the control plotted against the log concentration of the compound. A 4-parameter equation was used to determine the IC50.
# Aβ42 = assay: Screening for γ-secretase-modulating activity in SKNBE2 cells carrying APP 695 wild type: Aβ42 in cell supernatant (Alphalisa); assay type: cell-based; details: Homo sapiens, SKNBE2, SKNBE2 cells carrying APP 695 wild type, overnight incubation
# Procedure: as §1, §2, §3, §4, §5
Compound,melting point,IC50 (Aβtotal),IC50 (Aβ42)
"COc1cc(Nc2nc3c(-c4cccc(C(F)(F)F)c4)nccn3n2)ccc1-n1cnc(C)c1 [Compound 22, N-[3-methoxy-4-(4-methyl-1H-imidazol-1-yl)phenyl]-8-[3-(trifluoromethyl)phenyl]-[1,2,4]triazolo[1,5-a]pyrazin-2-amine]",199 °C,7590 nM,40 nM
"COc1cc(Nc2nc3c(-c4ccccc4C(F)(F)F)cccn3n2)ccc1-c1ocnc1C [Compound 23, N-[3-methoxy-4-(4-methyl-5-oxazolyl)phenyl]-8-[2-(trifluoromethyl)phenyl]-[1,2,4]triazolo[1,5-a]pyridin-2-amine]",220.3 °C,> 10000 nM,13 nM
"Cc1cc(-c2ccc(Nc3nc4c(-c5ccccc5Cl)cccn4n3)cc2F)ccn1 [Compound 25, 8-(2-chlorophenyl)-N-[3-fluoro-4-(2-methyl-4-pyridinyl)phenyl]-[1,2,4]triazolo[1,5-a]pyridin-2-amine]",251 °C,> 10000 nM,15 nM
"Cc1cc(-c2ccc(Nc3nc4c(-c5ccccc5Cl)cccn4n3)cc2)cc(C)n1 [Compound 26, 8-(2-chlorophenyl)-N-[4-(2,6-dimethyl-4-pyridinyl)phenyl]-[1,2,4]triazolo[1,5-a]pyridin-2-amine]",228.1 °C,> 10000 nM,43 nM
"COc1cc(Nc2nc3n(n2)CCCC3c2cccc(F)c2)ccc1-n1cnc(C)c1 (stereo not drawn) [Compound 30, 8-(3-fluorophenyl)-5,6,7,8-tetrahydro-N-[3-methoxy-4-(4-methyl-1H-imidazol-1-yl)phenyl]-[1,2,4]triazolo[1,5-a]pyridin-2-amine]",200.6 °C,> 10000 nM,49 nM
"COc1cc(Nc2nc3n(n2)CCCC3c2ccc(F)cc2C)ccc1-n1cnc(C)c1 (stereo not drawn) [Compound 32, 8-(4-fluoro-2-methylphenyl)-5,6,7,8-tetrahydro-N-[3-methoxy-4-(4-methyl-1H-imidazol-1-yl)phenyl]-[1,2,4]triazolo[1,5-a]pyridin-2-amine]",249 °C,9330 nM,12 nM
"COc1cc(Nc2nc3n(n2)CCCC3c2cccc(C(F)(F)F)c2)ccc1-n1cnc(C)c1 (stereo not drawn) [Compound 34, 5,6,7,8-tetrahydro-N-[3-methoxy-4-(4-methyl-1H-imidazol-1-yl)phenyl]-8-[3-(trifluoromethyl)phenyl]-[1,2,4]triazolo[1,5-a]pyridin-2-amine]",224.9 °C,7590 nM,10 nM
"COc1cc(Nc2nc3n(n2)CCCC3c2ccccc2C(F)(F)F)ccc1-c1ocnc1C (stereo not drawn) [Compound 38, 5,6,7,8-tetrahydro-N-[3-methoxy-4-(4-methyl-5-oxazolyl)phenyl]-8-[2-(trifluoromethyl)phenyl]-[1,2,4]triazolo[1,5-a]pyridin-2-amine]",258.5 °C,> 10000 nM,29 nM
"COc1cc(Nc2nc3n(n2)CCCC3c2cccc(F)c2)ccc1-c1ccnc(C)c1 (stereo not drawn) [Compound 44, 8-(3-fluorophenyl)-5,6,7,8-tetrahydro-N-[3-methoxy-4-(2-methyl-4-pyridinyl)phenyl]-[1,2,4]triazolo[1,5-a]pyridin-2-amine]",170.1 °C,> 10000 nM,39 nM
"COc1cc(Nc2nc3n(n2)CCOC3c2ccccc2C(F)(F)F)ccc1-n1cnc(C)c1 (stereo not drawn) [Compound 47, 5,6-dihydro-N-[3-methoxy-4-(4-methyl-1H-imidazol-1-yl)phenyl]-8-[2-(trifluoromethyl)phenyl]-8H-[1,2,4]triazolo[5,1-c][1,4]oxazin-2-amine]",202.9 °C,> 10000 nM,55 nM
"COc1cc(Nc2nc3n(n2)CCCC3c2cc(C(F)(F)F)ccc2F)ccc1-n1cnc(C)c1 (stereo not drawn) [Compound 48, 8-[2-fluoro-5-(trifluoromethyl)phenyl]-5,6,7,8-tetrahydro-N-[3-methoxy-4-(4-methyl-1H-imidazol-1-yl)phenyl]-[1,2,4]triazolo[1,5-a]pyridin-2-amine]",204.4 °C,5750 nM,30 nM
"COc1cc(Nc2nc3n(n2)CCCC3c2ccccc2F)ccc1-n1cnc(C)c1 (stereo not drawn) [Compound 49, 8-(2-fluorophenyl)-5,6,7,8-tetrahydro-N-[3-methoxy-4-(4-methyl-1H-imidazol-1-yl)phenyl]-[1,2,4]triazolo[1,5-a]pyridin-2-amine]",188.3 °C,> 10000 nM,29 nM
"COc1cc(Nc2nc3n(n2)CCCC3c2ccc(C(F)(F)F)cc2)ccc1-n1cnc(C)c1 (stereo not drawn) [Compound 50, 5,6,7,8-tetrahydro-N-[3-methoxy-4-(4-methyl-1H-imidazol-1-yl)phenyl]-8-[4-(trifluoromethyl)phenyl][1,2,4]triazolo[1,5-a]pyridin-2-amine]",229.7 °C,8130 nM,19 nM
"FC(F)(F)c1ccccc1C1CCCn2nc(Nc3ccc(-c4ccncc4)cc3)nc21 (stereo not drawn) [Compound 75, 5,6,7,8-tetrahydro-N-[4-(4-pyridinyl)phenyl]-8-[2-(trifluoromethyl)phenyl]-[1,2,4]triazolo[1,5-a]pyridin-2-amine]",240.4 °C,> 10000 nM,257 nM
"Cc1cc(-c2ccc(Nc3nc4n(n3)CCOC4c3ccccc3Cl)cc2)ccn1 (stereo not drawn) [Compound 76, 8-(2-chlorophenyl)-5,6-dihydro-N-[4-(2-methyl-4-pyridinyl)phenyl]-8H-[1,2,4]triazolo[5,1-c][1,4]oxazin-2-amine]",216.1 °C,> 10000 nM,46 nM
COc1cc(Nc2nc3n(n2)CCCC3c2ccccc2Cl)ccc1-c1ccnc(C)c1 (stereo not drawn) [Compound 77],167.9 °C,> 10000 nM,40 nM
"COc1cc(Nc2nc3n(n2)CCOC3c2ccc(F)cc2C)ccc1-c1ccnc(C)c1 (stereo not drawn) [Compound 92, 8-(4-fluoro-2-methylphenyl)-5,6-dihydro-N-[3-methoxy-4-(2-methyl-4-pyridinyl)phenyl]-8H-[1,2,4]triazolo[5,1-c][1,4]oxazin-2-amine]",201.9 °C,> 10000 nM,21 nM
"COc1cc(Nc2nc3n(n2)CCCC3c2ccccc2F)ccc1-c1ccnc(C)c1 (stereo not drawn) [Compound 99, 8-(2-fluorophenyl)-5,6,7,8-tetrahydro-N-[3-methoxy-4-(2-methyl-4-pyridinyl)phenyl]-[1,2,4]triazolo[1,5-a]pyridin-2-amine]",214.9 °C,> 10000 nM,50 nM
"COc1cc(Nc2nc3n(n2)CCOC3c2ccc(F)cc2F)ccc1-c1ccnc(C)c1 (stereo not drawn) [Compound 100, 8-(2,4-difluorophenyl)-5,6-dihydro-N-[3-methoxy-4-(2-methyl-4-pyridinyl)phenyl]-8H-[1,2,4]triazolo[5,1-c][1,4]oxazin-2-amine]",217.2 °C,> 10000 nM,36 nM
"COc1cccc(C2CCCn3nc(Nc4ccc(-c5ccnc(C)c5)c(F)c4)nc32)c1 (stereo not drawn) [Compound 102, N-[3-fluoro-4-(2-methyl-4-pyridinyl)phenyl]-5,6,7,8-tetrahydro-8-(3-methoxyphenyl)-[1,2,4]triazolo[1,5-a]pyridin-2-amine]",148.4 °C,> 10000 nM,29 nM
"COc1cccc(C2CCCn3nc(Nc4ccc(-c5ccnc(C)c5)cc4)nc32)c1 (stereo not drawn) [Compound 103, 5,6,7,8-tetrahydro-8-(3-methoxyphenyl)-N-[4-(2-methyl-4-pyridinyl)phenyl]-[1,2,4]triazolo[1,5-a]pyridin-2-amine]",221.6 °C,> 10000 nM,59 nM
"COc1cc(C2CCCn3nc(Nc4ccc(-c5ccnc(C)c5)cc4)nc32)ccc1F (stereo not drawn) [Compound 106, 8-(4-fluoro-3-methoxyphenyl)-5,6,7,8-tetrahydro-N-[4-(2-methyl-4-pyridinyl)phenyl]-[1,2,4]triazolo[1,5-a]pyridin-2-amine]",150.6 °C,> 15000 nM,40 nM
"COc1cc(C2CCCn3nc(Nc4ccc(-c5ccnc(C)c5)c(OC)c4)nc32)ccc1F (stereo not drawn) [Compound 107, 8-(4-fluoro-3-methoxyphenyl)-5,6,7,8-tetrahydro-N-[3-methoxy-4-(2-methyl-4-pyridinyl)phenyl]-[1,2,4]triazolo[1,5-a]pyridin-2-amine]",147.4 °C,> 15000 nM,32 nM
